What was measured:
[1] = Plasma stability of prodrugs (bioconversion to parent drug); assay type: in vitro ADME
Protocol: Approximately 1 mg/mL of stock solution of each prodrug was prepared in 100 μL of ethanol and 900 μL of acetonitrile. Next, 10 μL of stock was spiked into 1 mL of plasma and vortexed. The samples were kept sealed in an amber vial and samples were obtained to analyze for bioconversion to parent drug.
An approximated 1 mg/mL stock solution of each prodrug was prepared in 100 μL of ethanol and 900 μL of acetonitrile. Next, 10 μL of stock was spiked into 1 mL of plasma and vortexed. The samples were kept sealed in an amber vial and samples were obtained to analyze for bioconversion to parent drug.
Approximately 1 mg/mL of stock solution of each prodrug was prepared in 100 μL of ethanol and 900 μL of acetonitrile. Ten μL of stock was spiked into 1 mL of plasma and vortexed. The samples were kept sealed in an amber vial and samples were obtained to analyze for bioconversion to parent drug.

[2] = In vitro human skin permeation, flow-through diffusion cells
[3] = Table 19, 90:8:2 PG:H2O:IPM donor solution, analyte: THC or intact prodrug as applied
[4] = Table 3, 1:1:1 PG:ethanol:H2O donor solution
[5] = Table 5, 1:1:1 PG:ethanol:H2O donor solution and higher flow rate
[6] = Table 6, 1:1:1 PG:ethanol:H2O donor solution, receiver fluid 25% aqueous ethanol
[7] = Table 6, 1:1:1 PG:ethanol:H2O donor solution, receiver fluid 40% aqueous PEG 400
[8] = Table 7, 2.36:1.18:1 PG:ethanol:H2O donor solution, analyte: THC or intact prodrug as applied
[9] = Table 8, gel formulation, analyte: THC or intact prodrug as applied
[10] = Table 9, 2.36:1.18:1 pH = 5.5 PG:ethanol:H2O donor solution, analyte: THC or intact prodrug as applied
[11] = Table 10, 2.36:1.18:1 pH = 5.5 PG:ethanol:H2O donor solution, analyte: THC or intact prodrug as applied
[12] = Table 13, gel formulation with 40% aqueous PEG 400 receiver fluid, analyte: THC or intact prodrug as applied
[13] = Table 17, 90:8:2 PG:H2O:IPM donor solution, analyte: THC or intact prodrug as applied
[14] = Table 18, 90:8:2 PG:H2O:IPM donor solution, analyte: THC or intact prodrug as applied
[15] = Table 20, 90:8:2 PG:H2O:IPM donor solution (saturated), analyte: THC or intact prodrug as applied

## CCCCCc1cc(OC(=O)C2CCCN2)c2c(c1)OC(C)(C)[C@@H]1CCC(C)=C[C@@H]21 (stereo partly drawn) [ALL00125, Δ^9-Tetrahydrocannabinol prolyl ester]
[1]; Table 11, 0.1 h
  % Prodrug at time (h): 100%
[1]; Table 11, 2 h
  % Prodrug at time (h): 77%
[1]; Table 11, 5 h
  % Prodrug at time (h): 55%
[1]; Table 11, 22 h
  % Prodrug at time (h): 0%
[1]; Table 11, 24 h
  % Prodrug at time (h): 0%
[1]; Table 11, 42 h
  % Prodrug at time (h): 0%

## CCCCCc1cc(OC(=O)OCCCCN)c2c(c1)OC(C)(C)[C@@H]1CCC(C)=C[C@@H]21 [ALL00127, Δ^9-Tetrahydrocannabinol 4-aminobutyl carbonate]
[1]; Table 15, 0.1 h
  % Prodrug at time (h): 100%
[1]; Table 15, 1 h
  % Prodrug at time (h): 100%
[1]; Table 15, 2.5 h
  % Prodrug at time (h): 91%
[1]; Table 15, 3.5 h
  % Prodrug at time (h): 85%

## CCCCCc1cc(OC(=O)[C@H](O)CO)c2c(c1)OC(C)(C)[C@@H]1CCC(C)=C[C@@H]21 [ALL00144, THC (R)-2,3-dihydroxypropanoate]
[2]; [3]
  24 h cumulative amt: 137.9 ± 55.2 nmol
  24 h skin conc: 65.5 ± 39.5 µmol/g
  Flux: 8.6 ± 3.4 nmol/cm^2/h
  Lag time: 7.2 ± 0.1 h

## CCCCCc1cc(O)c2c(c1)OC(C)(C)[C@@H]1CCC(C)=C[C@@H]21 [Δ^9-tetrahydrocannabinol, reference compound]
[2]; Table 2, 100% PG donor solution
  24 h cumulative amt: 6.91 ± 2.1 nmol
[2]; Table 2, 100% PG donor solution, analyte: THC or intact prodrug (PD)
  24 h skin conc: 74.8 ± 15.5 µmol/g
[2]; [4]
  24 h cumulative amt: 9.0 ± 5.9 nmol
  Flux: 0.93 ± 0.58 nmol/cm^2/h
  Lag time: 13.0 ± 1.8 h
[2]; Table 3, 1:1:1 PG:ethanol:H2O donor solution, analyte: THC or intact prodrug (PD)
  24 h skin conc: 59.4 ± 30.5 µmol/g
[2]; Table 4, gel formulation
  24 h cumulative amt: 1.5 ± 0.3 nmol
  Flux: 0.14 ± 0.03 nmol/cm^2/h
  Lag time: 11.2 ± 2.7 h
[2]; Table 4, gel formulation, analyte: THC or intact prodrug (PD)
  24 h skin conc: 100.4 ± 5.8 µmol/g
[2]; [5]
  24 h cumulative amt: 6.0 ± 2.1 nmol
  24 h skin conc: 133.8 ± 52.3 µmol/g
  Flux: 0.67 ± 0.15 nmol/cm^2/h
  Lag time: 8.9 ± 7.2 h
[2]; [6]
  24 h cumulative amt: 9.4 ± 0.2 nmol
  24 h skin conc: 24.1 ± 5.2 µmol/g
  Flux: 0.70 ± 0.01 nmol/cm^2/h
  Lag time: 6.9 ± 0.2 h
[2]; [7]
  24 h cumulative amt: 28.6 ± 3.2 nmol
  24 h skin conc: 17.4 ± 11.6 µmol/g
  Flux: 1.79 ± 0.39 nmol/cm^2/h
  Lag time: 6.4 ± 1.6 h
[2]; [8]
  24 h cumulative amt: 43.1 ± 4.8 nmol
  24 h skin conc: 75.2 ± 33.1 µmol/g
  Flux: 3.1 ± 0.2 nmol/cm^2/h
  Lag time: 9.0 ± 2.9 h
[2]; [9]
  24 h cumulative amt: 10.7 ± 2.1 nmol
  24 h skin conc: 40.9 ± 14.7 µmol/g
  Flux: 0.62 ± 0.23 nmol/cm^2/h
  Lag time: 5.3 ± 3.3 h
[2]; [10]
  24 h cumulative amt: 16.3 ± 7.3 nmol
  24 h skin conc: 16.1 ± 0.5 µmol/g
  Flux: 1.3 ± 0.5 nmol/cm^2/h
  Lag time: 11.4 ± 0.6 h
[2]; [11]
  24 h cumulative amt: 33.6 ± 11.2 nmol
  24 h skin conc: 7.4 ± 0.6 µmol/g
  Flux: 2.7 ± 1.1 nmol/cm^2/h
  Lag time: 10.8 ± 1.4 h
[2]; [12]
  24 h cumulative amt: 3.1 ± 0.8 nmol
  24 h skin conc: 3.6 ± 1.7 µmol/g
  Flux: 0.17 ± 0.02 nmol/cm^2/h
  Lag time: 4.6 ± 3.2 h
[2]; [13]
  24 h cumulative amt: 16.3 ± 0.3 nmol
  24 h skin conc: 6.1 ± 1.9 µmol/g
  Flux: 1.0 ± 0.3 nmol/cm^2/h
  Lag time: 5.8 ± 5.9 h
[2]; [14]
  24 h cumulative amt: 53.3 ± 0.0 nmol
  24 h skin conc: 17.4 ± 9.2 µmol/g
  Flux: 3.2 ± 0.0 nmol/cm^2/h
  Lag time: 6.2 ± 0.0 h
[2]; [3]
  24 h cumulative amt: 29.8 ± 3.3 nmol
  24 h skin conc: 23.3 ± 1.7 µmol/g
  Flux: 2.0 ± 0.3 nmol/cm^2/h
  Lag time: 8.7 ± 0.3 h
[2]; [15]
  24 h cumulative amt: 15.7 ± 4.5 nmol
  24 h skin conc: 8.5 ± 3.5 µmol/g
  Flux: 1.1 ± 0.3 nmol/cm^2/h
  Lag time: 9.0 ± 0.7 h

— US9957246B2, “Prodrugs of tetrahydrocannabinol, compositions comprising prodrugs of tetrahydrocannabinol and methods of using the same” (Zynerba Pharmaceuticals, Inc., priority 2007, dated 2018)
